Measured values published in patent US8987514B2, “Compositions and methods for labeling and imaging phospholipids” (President and Fellows of Harvard College, priority 2009, dated 2015).

Tested on: NIH-3T3 cells
Settings: for incorporation of azide choline analogs into phospholipids: FIG. 8 legend
Text: After incorporation into phospholipids, azidophosphatidylcholine molecules can be detected by specifically reacting them with a fluorescent conjugate of dibenzo-cyclooctyne (DBCO), in a strain-promoted azide-alkyne cycloaddition reaction, also known as the copper-free “click” reaction (FIG. 9). In addition, azidophosphatidylcholine molecules can be reacted with a biotin-phosphine, followed by the detection of the biotinylated phospholipid species using labeled streptavidin (FIG. 10).
Cultured NIH-3T3 cells on coverslips were incubated overnight in complete media (DMEM with 10% bovine calf serum) in the absence or presence of 1 mM azidopropyl-choline. The cells were then washed with PBS, fixed with 3.7% formaldehyde in PBS, washed with TBS and then reacted with 40 microM biotin-phosphine in TBS supplemented with 1 mM DTT, for 3 hours at room temperature. The cells were then washed successively with TBS, 0.5 M NaCl, and TBS. Non-specific binding sites were blocked by incubation with blocking buffer (4% bovine serum albumin in TBS), followed by staining with Alexa488-streptavidin (1 microg/mL in blocking buffer). The cells were then washed with TBS (at least 4 washes, at 5 minutes each), mounted and imaged by fluorescence microscopy.
Cultured NIH-3T3 cells were transiently transfected with the plasmid pDsRed-Mito (Clontech), which labels mitochondria red. The cells were then incubated overnight in complete media, in the absence or presence of 500 microM azidoethyl-choline. The cells were washed with PBS, fixed with 3.7% formaldehyde in PBS, washed with TBS and then reacted with 20 microM Alexa488-DBCO in TBS, for 30 minutes at room temperature. Unreacted Alexa488-DBCO was removed by washing successively with TBS, 0.5 M NaCl, and TBS. The cells were then imaged by fluorescence microscopy.

Row | Substance | incorporation of azide choline analogs into phospholipids | subcellular distribution of azidoethylcholine-labeled phospholipids (NIH-3T3 cells, 500 microM overnight, DsRed-Mito marker, Alexa488-DBCO, FIG. 12)
1 | azidoethyl-choline | efficiently incorporated into phospholipids in vivo | localize to several populations of cellular membranes, including the mitochondrial membrane
2 | azidopropyl-choline | efficiently incorporated into phospholipids in vivo | –
